Measurements reported in patent US6858591B2, “Antibiotic AA 896 analogs” (Wyeth Holdings Corporation, priority 2001, dated 2005).
Converted amounts (≈) assume the structure as drawn. Read-outs that look alike come from different tables or passages of the source.

Columns and labels:
Assay in all cases: In vitro MIC, broth dilution
Format in all cases: cell-based
[1] = tested on: E. coli GC 4559; conditions: Escherichia coli, GC4559
[2] = tested on: E. coli GC 4560; conditions: Escherichia coli, GC4560
[3] = tested on: E. coli GC 3226; conditions: Escherichia coli, GC3226
[4] = tested on: S. marcescens GC 4077; conditions: Serratia marcescens, GC4077
[5] = tested on: C. albicans GC 3066; conditions: Candida albicans, GC3066
[6] = tested on: M. morganii GC 4531; conditions: Morganella morganii, GC4531
[7] = tested on: K. pneumoniae GC 4534; conditions: Klebsiella pneumoniae, GC4534
[8] = tested on: E. cloacae GC 3783; conditions: Enterobacter cloacae, GC3783
[9] = tested on: P. aeruginosa GC 4532; conditions: Pseudomonas aeruginosa, GC4532
[10] = tested on: CNS GC 4537
Protocol: (§1) The minimum inhibitory concentration (MIC), the lowest concentration of the antibiotic which inhibits growth of the test organism, is determined by the broth dilution method using Muller-Hinton II […] (Baltimore Biological Laboratories) following the recommendations of National Committee for Clinical Laboratory Standards. [Reference for the Methods for dilution antimicrobial susceptibility tests for bacteria that grow aerobically: National Committee for Clinical Laboratory Standards, 1997. Approved standard M7-A National Committee for Clinical Laboratory Standards, Wayne, Pa.] An inoculum level of 5×10^5 CFU/ml, and a range of antibiotic concentrations (64-0.06 μg/ml) is used. The MIC is determined after the microtiter plates are incubated for 18 hours at 35° C. in an ambient air incubator. The test organisms comprise a spectrum of gram-positive bacteria including Staphylococcus sp., Streptococcus sp. and Enterococcus sp. These organisms include recent clinical isolates that are resistant to methicillin, penicillin and vancomycin.

[11] = tested on: CNS GC 4538
Protocol: as §1

[12] = tested on: CNS GC 4547
Protocol: as §1

[13] = tested on: E. faecalis GC 2242; conditions: Enterococcus faecalis, GC2242
Protocol: as §1

[14] = tested on: E. faecalis GC 4555; conditions: Enterococcus faecalis, GC4555
Protocol: as §1

[15] = tested on: E. faecalis GC 842; conditions: Enterococcus faecalis, GC842
Protocol: as §1

[16] = tested on: S. aureus GC 1131; conditions: Staphylococcus aureus, GC1131
Protocol: as §1

[17] = tested on: S. aureus GC 2216; conditions: Staphylococcus aureus, GC2216
Protocol: as §1

[18] = tested on: S. aureus GC 4536; conditions: Staphylococcus aureus, GC4536
Protocol: as §1

[19] = tested on: E. coli GC 2203; conditions: Escherichia coli, GC2203
[20] = tested on: P. aeruginosa GC 2214; conditions: Pseudomonas aeruginosa, GC2214
[21] = S. marcescens GC 4077, read-out: MIC
[22] = C. albicans GC 3066, read-out: MIC
[23] = M. morganii GC 4531, read-out: MIC
[24] = K. pneumoniae GC 4534, read-out: MIC
[25] = E. cloacae GC 3783, read-out: MIC
[26] = P. aeruginosa GC 4532, read-out: MIC
[27] = E. faecalis GC 2242, read-out: MIC
[28] = E. faecalis GC 4555, read-out: MIC
[29] = E. faecalis GC 842, read-out: MIC
[30] = S. aureus GC 1131, read-out: MIC
[31] = S. aureus GC 2216, read-out: MIC
[32] = S. aureus GC 4536, read-out: MIC
[33] = P. aeruginosa GC 2214, read-out: MIC

Structure (SMILES)	MIC ([1]; E. coli GC 4559, read-out: MIC) [µg/mL]	MIC ([2]; E. coli GC 4560, read-out: MIC) [µg/mL]	MIC ([3]; E. coli GC 3226, read-out: MIC) [µg/mL]	MIC [4, 21] [µg/mL]	MIC [5, 22] [µg/mL]	MIC [6, 23] [µg/mL]	MIC [7, 24] [µg/mL]	MIC [8, 25] [µg/mL]	MIC [9, 26] [µg/mL]	MIC ([10]; CNS GC 4537, read-out: MIC) [µg/mL]	MIC ([11]; CNS GC 4538, read-out: MIC) [µg/mL]	MIC ([12]; CNS GC 4547, read-out: MIC) [µg/mL]	MIC [13, 27] [µg/mL]	MIC [14, 28] [µg/mL]	MIC [15, 29] [µg/mL]	MIC [16, 30] [µg/mL]	MIC [17, 31] [µg/mL]	MIC [18, 32] [µg/mL]	MIC ([19]; E. coli GC 2203, read-out: MIC) [µg/mL]	MIC [20, 33] [µg/mL]	further results
COc1ccc(Cn2c(=O)ccn([C@@H]3OC([C@@H](O)[C@H](NCCCNC(=O)C(NC(=O)OCc4ccccc4)[C@@H](O)C(C)C)C(=O)OC(C)(C)C)[C@@H](O[Si](C)(C)C(C)(C)C)[C@H]3O[Si](C)(C)C(C)(C)C)c2=O)cc1 (stereo in doubt) [Example 3, tert-Butyl (5R,12S)-12-[(S)-[(3R,4R,5R)-3,4-bis{[tert-butyl(dimethyl)silyl]oxy}-5-(3-(4-methoxybenzyl)-2,4-dioxo-3,4-dihydro-1(2H)-pyrimidinyl)tetrahydro-2-furanyl](hydroxy)methyl]-5-[(1S)-1-hydroxy-2-methylpropyl]-3,6-dioxo-1-phenyl-2-oxa-4,7,11-triazatridecan-13-oate]																					MIC [1]: > 128 µg/mL; MIC [2]: 128 µg/mL (≈ 123 µM); MIC [3]: > 128 µg/mL; MIC [4]: > 128 µg/mL; MIC [5]: 128 µg/mL (≈ 123 µM); MIC [6]: 128 µg/mL (≈ 123 µM); MIC [7]: > 128 µg/mL; MIC [8]: > 128 µg/mL; MIC [9]: 128 µg/mL (≈ 123 µM); MIC [10]: > 128 µg/mL; MIC [11]: > 128 µg/mL; MIC [12]: 128 µg/mL (≈ 123 µM); MIC [13]: 128 µg/mL (≈ 123 µM); MIC [14]: 128 µg/mL (≈ 123 µM); MIC [15]: > 128 µg/mL; MIC [16]: > 128 µg/mL; MIC [17]: > 128 µg/mL; MIC [18]: > 128 µg/mL; MIC [19]: > 128 µg/mL; MIC [20]: 128 µg/mL (≈ 123 µM)
COc1ccc(Cn2c(=O)ccn([C@@H]3OC(C(O)[C@H](NCCCNC(=O)[C@@H](N)CC(=O)O)C(=O)OC(C)(C)C)[C@@H](O[Si](C)(C)C(C)(C)C)[C@H]3O[Si](C)(C)C(C)(C)C)c2=O)cc1 (stereo in doubt) [Example 17, (3S)-3-Amino-4-[(3-{[(1S,2S)-2-[(3R,4R,5R)-3,4-bis{[tert-butyl(dimethyl)silyl]oxy}-5-(3-(4-methoxybenzyl)-2,4-dioxo-3,4-dihydro-1(2H)-pyrimidinyl)tetrahydro-2-furanyl]-1-(tert-butoxycarbonyl)-2-hydroxyethyl]amino}propyl)amino]-4-oxobutanoic acid]	> 128	> 128	> 128	> 128	> 128	> 128	> 128	> 128	> 128	> 128	64 (≈ 71.6 µM)	> 128	4 (≈ 4.47 µM)	16 (≈ 17.9 µM)	32 (≈ 35.8 µM)	128 (≈ 143 µM)	32 (≈ 35.8 µM)	128 (≈ 143 µM)	> 128	> 128	
COc1ccc(Cn2c(=O)ccn([C@@H]3OC([C@H](O)[C@H](NCCCNC(=O)[C@@H](NC(=O)OCc4ccccc4)C(C)O)C(=O)O)[C@@H](O)C3O[Si](C)(C)C(C)(C)C)c2=O)cc1 (stereo in doubt) [Example 46, (5S,12S)-12-[(R)-[(3R,4R,5R)-4-{[tert-butyl(dimethyl)silyl]oxy}-3-hydroxy-5-(3-(4-methoxy-benzyl)-2,4-dioxo-3,4-dihydro-1(2H)-pyrimidinyl)tetrahydro-2-furanyl](hydroxy)methyl]-5-[(1S)-1-hydroxyethyl]-3,6-dioxo-1-phenyl-2-oxa-4,7,11-triazatridecan-13-oic acid]	> 128	128 (≈ 152 µM)	> 128	> 128	128 (≈ 152 µM)	128 (≈ 152 µM)	> 128	> 128	128 (≈ 152 µM)	> 128	> 128	> 128	128 (≈ 152 µM)	128 (≈ 152 µM)	128 (≈ 152 µM)	> 128	> 128	> 128	> 128	128 (≈ 152 µM)	
CCCCCCCCCCCCCC(=O)OC(C)[C@H](NC(=O)OCc1ccccc1)C(=O)NCCCNC(C(=O)OCC)C(O)C1O[C@@H](n2ccc(=O)[nH]c2=O)[C@H](OC(C)=O)[C@@H]1OC(C)=O (stereo in doubt) [Example 58, Ethyl (5S)-12-[(R)-[(2R,3R,4R,5R)-3,4-bis(acetyloxy)-5-(2,4-dioxo-3,4-dihydropyrimidin-1(2 h)-yl)tetrahydrofuran-2-yl](hydroxy)methyl]-3,6-dioxo-1-phenyl-5-[(1S)-1-(tetradecanoyloxy)ethyl]-2-oxa-4,7,11-triazatridecan-13-oate]	> 128	> 128	> 128	> 128	> 128	> 128	> 128	> 128	> 128	> 128	> 128	> 128	> 128	> 128	> 128	> 128	> 128	> 128	> 128	> 128	
COc1ccc(Cn2c(=O)ccn([C@@H]3OC([C@H](O)[C@H](NCCCNC(=O)[C@@H](NC(=O)OCc4ccccc4)[C@@H](O)C(C)C)C(=O)OC(C)(C)C)[C@@H](O[Si](C)(C)C(C)(C)C)[C@H]3O[Si](C)(C)C(C)(C)C)c2=O)cc1 (stereo partly drawn) [Example 1, tert-Butyl (5S,12S)-12-[(R)-[(3R,4R,5R)-3,4-bis{[tert-butyl(dimethyl)silyl]oxy}-5-(3-(4-methoxybenzyl)-2,4-dioxo-3,4-dihydro-1(2H)-pyrimidinyl)tetrahydro-2-furanyl](hydroxy)methyl]-5-[(1S)-1-hydroxy-2-methylpropyl]-3,6-dioxo-1-phenyl-2-oxa-4,7,11-triazatridecan-13-oate]																					MIC [1]: > 128 µg/mL; MIC [2]: > 128 µg/mL; MIC [3]: > 128 µg/mL; MIC [4]: > 128 µg/mL; MIC [5]: > 128 µg/mL; MIC [6]: > 128 µg/mL; MIC [7]: > 128 µg/mL; MIC [8]: > 128 µg/mL; MIC [9]: 128 µg/mL (≈ 123 µM); MIC [10]: > 128 µg/mL; MIC [11]: > 128 µg/mL; MIC [12]: > 128 µg/mL; MIC [13]: 128 µg/mL (≈ 123 µM); MIC [14]: 128 µg/mL (≈ 123 µM); MIC [15]: > 128 µg/mL; MIC [16]: > 128 µg/mL; MIC [17]: > 128 µg/mL; MIC [18]: > 128 µg/mL; MIC [19]: > 128 µg/mL; MIC [20]: 128 µg/mL (≈ 123 µM)
